# PubChem BioAssay AID588780 (Sanford-Burnham Center for Chemical Genomics, 2011)
# Calls of active or inactive are those of the source.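 Rule for the calls: active = compounds whose fitted half-maximal concentration in the cell-protection dose series is at or below a set limit; inactive = the rest.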
# System: H9c2 cardiomyocytes, 2-deoxyglucose stress, ATP luminescence, 2 h
# Test: H9c2 cell survival under 2-deoxyglucose stress – uHTS hits, dose response (AID 588780)
row,SMILES,IC50
1,COc1ccc(CNn2c(-c3cccs3)nc3ccccc3c2=O)cc1OC,11.8 µM
2,Cc1sc2nc(SCC(=O)N(C)C)[nH]c(=O)c2c1C,> 79 µM (inactive)
3,Cc1ccc2c(c1)nc1c3ccccc3nc(-c3ccccc3N)n21,> 79 µM (inactive)
4,O=C(Nc1cc(S(=O)(=O)N2CCOCC2)ccc1N1CCCCC1)c1cc(-c2ccccn2)nc2ccccc12,> 79 µM (inactive)
5,CC(=O)Oc1ccc2c(C)cc(=O)oc2c1,> 79 µM (inactive)
6,O=CNc1cc(-c2ccc(C(=O)NC3CC3)cc2)cn2c(-c3ccc(F)c(Cl)c3)cnc12,> 79 µM (inactive)
7,COc1ccc(/C=N/NC(=O)c2cc(-c3ccc4c(c3)OCO4)n[nH]2)cc1OC,> 79 µM (inactive)
8,Cc1nc2ccccc2c2c(N)c3ccccc3n12,26.5 µM
9,COc1ccc(-n2c(/C=C/c3ccc(O)c(OC)c3)nc3ccccc3c2=O)cc1,> 79 µM (inactive)
10,CCCCn1c(NC(=O)c2ccccc2)nc2ccccc21,> 79 µM (inactive)
11,Cc1cccc(NC(=O)c2nc[nH]c2C(=O)NCCCNC(=O)c2[nH]cnc2C(=O)Nc2cccc(C)c2)c1,31.6 µM (inactive)
12,CC(OC(=O)Cc1n[nH]c(=O)c2ccccc12)C(=O)Nc1ccc(F)cc1Cl (stereo not drawn),> 79 µM (inactive)
13,N#CCCN(C(=O)COC(=O)CCc1nc2ccccc2c(=O)[nH]1)c1ccccc1F,> 79 µM (inactive)
14,CCN(CC)S(=O)(=O)c1ccc(Nc2nc3ccccc3n3nnnc23)cc1,> 79 µM (inactive)
15,CCN(CC)C(=O)c1ccc(-c2nnc(Nc3ccc(O)cc3)c3ccccc23)cc1,71.4 µM (inactive)
16,O=C(COc1ccccc1Cl)NNC(=O)Cn1[nH]c(=O)c2ccccc2c1=O,> 79 µM (inactive)
17,CN(C)Cc1ccc(-c2nc3cccc4c3n2CCNC4=O)cc1,49.2 µM (inactive)
18,CCOC(=O)c1c(C)[nH]c(O)c1C=Nc1ccc(Cl)cc1,> 79 µM (inactive)
19,COCCn1c(=NC(=O)c2nc3ccccc3s2)sc2cc(S(C)(=O)=O)ccc21,28.3 µM
20,COc1cc(-c2cc3nc(NCCc4ccc(S(N)(=O)=O)cc4)ccn3n2)cc(OC)c1OC,15.8 µM
21,C=CCc1ccccc1OCC(=O)N/N=C/c1ccc(OC(C)=O)cc1OC(C)=O,> 79 µM (inactive)
22,O=C(C(=O)N(Cc1ccccc1)Cc1ccccc1)c1c(-c2ccccc2)[nH]c2ccccc12,> 79 µM (inactive)
23,COc1ccc(/C=N/NC(=O)c2cccnc2)cc1CN1CCc2ccccc2C1,> 79 µM (inactive)
24,COc1cc(C(=O)N/N=C/c2ccc(OC(=O)c3cccc(C)c3)c(OC)c2)ccc1O,> 79 µM (inactive)

row,SMILES,IC50
1,O=C(Oc1ccc2c(-c3ccccc3)cc(=O)oc2c1)C1CCCCC1,32.9 µM (inactive)
2,O=C(COC(=O)c1ccc([N+](=O)[O-])o1)Nc1ccc(N2CCOCC2)cc1,> 79 µM (inactive)
3,O=C(CCc1nc2ccccc2c(=O)[nH]1)N1CCN(c2ccc(F)cc2)CC1,> 79 µM (inactive)
4,CCn1c(SCC(=O)Nc2ccccc2N2CCCCC2)nc2c1c(=O)n(C)c(=O)n2C,12.6 µM
5,COc1ccc(NC(=O)CCc2nc3ccccc3c(=O)[nH]2)cc1S(=O)(=O)N1CCCCC1,> 79 µM (inactive)
6,Cn1c2c(c(=O)n(C)c1=O)C(c1cccc([N+](=O)[O-])c1)Nc1ccccc1O2 (stereo not drawn),> 79 µM (inactive)
7,NC(=O)c1nsc(C(=O)N(Cc2ccco2)C(C(=O)NCc2ccccc2)c2ccc(O)cc2)c1N (stereo not drawn),10.1 µM
8,NC(=O)c1ccccc1N=Cc1ccccn1,> 79 µM (inactive)
9,CCCCCCSc1ccc([C@H]2N[C@@](Cc3ccccc3)(C(=O)OC)[C@H]3C(=O)N(C)C(=O)[C@@H]23)cc1,> 79 µM (inactive)
10,CN(C(=O)CSc1nc2c(c(=O)[nH]1)CCCC2)C1CCCCC1,> 79 µM (inactive)
11,CCCN(CC(=O)Nc1ccccc1C)C(=O)Cc1n[nH]c(=O)c2ccccc12,> 79 µM (inactive)
12,CCOc1cc(/C=N/NC(N)=O)cc(Br)c1OCC(=O)Nc1cccc2ccccc12,> 79 µM (inactive)
13,O=C(N/N=C/c1cccc2cccnc12)[C@H]1C[C@@H]1c1ccccc1,29.2 µM
14,Fc1ccc(-c2ccc(-c3nn4c(-c5ccco5)nnc4s3)o2)cc1,> 79 µM (inactive)
15,O=C1COc2ccc(-c3n[nH]c(=O)c4ccccc34)cc2N1,> 79 µM (inactive)
16,COc1ccccc1C(=O)NCC(=O)N/N=C/c1cc(Br)ccc1OC(=O)/C=C\c1ccco1,> 79 µM (inactive)
17,CCC(c1nnnn1Cc1ccco1)N(Cc1cc2cc(C)cc(C)c2[nH]c1=O)CC1CCCO1 (stereo not drawn),> 79 µM (inactive)
18,O=C(Nc1nnc(-c2ccc3c(c2)CCCC3)o1)c1ccccc1,23.3 µM
19,Cc1c(O)ccc2c3c(c(=O)oc12)CCC(C)C3 (stereo not drawn),15.9 µM
20,COc1ccc(Nc2nc(Nc3ccc(OC)cc3OC)nc(N3CCN(C)CC3)n2)c(OC)c1,43.4 µM (inactive)
21,O=c1[nH]nc(-c2cccs2)c2ccccc12,5.51 µM
22,CS(=O)(=O)Nc1cccc(NC(=O)c2cccc3c(-c4cccc(C(N)=O)c4)coc23)c1,> 79 µM (inactive)
23,COc1ccc(NS(=O)(=O)c2cc(NC(=O)Cc3n[nH]c(=O)c4ccccc34)ccc2OC)cc1,> 79 µM (inactive)
24,C/C(=N\Nc1nnc2c3ccccc3n(C)c2n1)c1ccc(C)o1,> 79 µM (inactive)
